Laboratory results: US20230331777A1, “NOVEL PEPTOID COMPOUNDS THAT BIND TO CELL RECEPTOR ACE2 AND PREVENT VIRUS ENTRY INTO CELLS” (priority 2020, published 2023)
Starred links: 1 amine or outer side, 2 acyl side, 3 side chain; linkers in the order of their positions; H or OH if unused. Positions of bridges follow the written chain, without caps; N, C: chain ends. Non-standard residues stand in square brackets, D forms with d. Residues, ends and D or L forms follow the SMILES beside them. Chains are numbered I, II in the order given. N(4-MeOBn)Gly = COc1ccc(CNCC(=O)O)cc1; N((CH2)3OiPr)Gly = CC(C)OCCCNCC(=O)O; X1 = CC(c1ccccc1)N(CC(=O)[*:2])[*:1]; NAllylGly = C=CCNCC(=O)O; Nleu = CC(C)CNCC(=O)O; Nme = COCCNCC(=O)O

Columns and labels:
[1] = target: T1, ACE2 in human H1299 cells (Homo sapiens, UniProt Q9BYF1); assay: ACE2 enzymatic activity in cell homogenates; format: biochemical; conditions: captopril 10 µM
T1 construct: endogenous in cells; host or cells: H1299 human lung cancer cells
T1 sequence (Q9BYF1 18-805): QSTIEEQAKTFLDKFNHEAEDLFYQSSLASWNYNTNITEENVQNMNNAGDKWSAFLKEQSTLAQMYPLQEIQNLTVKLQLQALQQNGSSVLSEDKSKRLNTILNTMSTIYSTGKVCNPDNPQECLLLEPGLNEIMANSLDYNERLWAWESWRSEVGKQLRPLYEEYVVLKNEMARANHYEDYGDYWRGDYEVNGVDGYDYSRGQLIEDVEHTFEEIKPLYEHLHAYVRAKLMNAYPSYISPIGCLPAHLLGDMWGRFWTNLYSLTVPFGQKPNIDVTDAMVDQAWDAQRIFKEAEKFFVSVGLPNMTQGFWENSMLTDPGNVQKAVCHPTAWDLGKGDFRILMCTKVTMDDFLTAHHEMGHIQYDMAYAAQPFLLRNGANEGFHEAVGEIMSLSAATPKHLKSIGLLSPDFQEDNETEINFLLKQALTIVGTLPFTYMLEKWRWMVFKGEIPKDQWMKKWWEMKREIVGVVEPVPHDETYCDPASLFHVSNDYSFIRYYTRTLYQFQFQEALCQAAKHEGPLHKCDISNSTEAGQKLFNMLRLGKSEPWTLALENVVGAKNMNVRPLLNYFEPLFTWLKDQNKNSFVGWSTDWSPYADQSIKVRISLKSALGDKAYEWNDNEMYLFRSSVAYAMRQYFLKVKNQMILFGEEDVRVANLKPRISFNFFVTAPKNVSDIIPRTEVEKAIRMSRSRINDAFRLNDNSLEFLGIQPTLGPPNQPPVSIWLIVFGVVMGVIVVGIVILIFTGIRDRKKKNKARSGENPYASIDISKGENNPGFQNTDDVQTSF
Description: (§1) Assays were run at 37° C. in an ACE2 reaction buffer containing 10 µM Mca-YVADAPK(Dnp), in a total volume of 100 µl. Fluorescence emission at 405 nm, after excitation at 320 nm, was measured in a microplate reader. Cleavage of the substrate Mca-YVADAPK(Dnp) by ACE2 enzyme produces fluorescence. The strength of the fluorescence indicates the ACE2 enzymatic activity.
(§2) To measure ACE2 activity in cells, cell homogenates were used. To prevent hydrolysis of the substrate by a range of nonmetalloprotease enzymes from the cells, cOmplete™ Protease Inhibitor Cocktail (Roche/Sigma) were added to the cell homogenates. To eliminate the effects of ACE on the substrate, ACE inhibitor captopril (10 µM) was added to the assay.

[2] = target: T2, ACE2 in MCF-7 cells (Homo sapiens, UniProt Q9BYF1); assay: ACE2 enzymatic activity in cell homogenates; format: biochemical; conditions: MCF-7 cell homogenates, captopril 10 µM
T2 construct: endogenous in cells; host or cells: MCF-7 cells
T2 sequence (Q9BYF1 18-805): as above
Description: as §1, §2

[3] = target: T3, ACE2 protein (Homo sapiens, UniProt Q9BYF1); assay: ACE2 enzymatic activity, Mca-YVADAPK(Dnp) fluorescence assay; format: biochemical; conditions: up to 10 µM peptoid; 10 µM Mca-YVADAPK(Dnp), 37° C.
T3 sequence (Q9BYF1 18-805): as above
Description: as §1
ACE2 is an enzyme that lowers blood pressure by catalyzing the hydrolysis of angiotensin II. […] Applicant assessed the effects of ACE2P1D1 and ACE2P2D1 on ACE2 enzyme activity on recombinant ACE2 protein.

[4] = target: T3, ACE2 protein; assay: Protein Thermal Shift assay; format: binding; conditions: 10 µM peptoid
Description: FIGS. 8A-D illustrate that ACE2P1 and ACE2P2 interact directly with ACE2. FIG. 8A provides experimental results from an in vitro pulldown assay for ACE2P1 and ACE2P2. […] The thermal shift assay was carried out on a QuantStudio 3 Real-Time PCR System.
Next, Applicant created the dimers of ACE2P1 and ACE2P2 (FIG. 8B) and performed thermal shift assays using recombinant ACE2 proteins. Thermal shift assay is routinely used in drug discovery to identify protein-ligand interactions. The Applied Biosystems™ Protein Thermal Shift™ assay measures protein thermal stability using a fluorescent protein-binding dye. […] The protein is mixed with the dye and heated. As it unfolds or melts, hydrophobic parts of the protein are exposed and bind to the dye, resulting in fluorescence emission detected by the qPCR system. Binding of a ligand to the protein changes the stability of the protein, resulting in a change in fluorescence intensity.

[5] = test system: HEK293T cells; assay: WST-1 cell viability assay; format: cell-based, human; conditions: various concentrations, 48 hours
Description: (§3) MCF-7 and HEK293T cells were treated with various concentrations of ACE2P1D1 (FIG. 12A) or ACE2P2D1 (FIG. 12B) for 48 hours. Cell viability was measured by a WST-1 assay.
(§4) To assess whether the peptoids are toxic to human cells, Applicant performed the WST-1 assay.

[6] = test system: MCF-7 cells; assay: WST-1 cell viability assay; format: cell-based, human; conditions: various concentrations, 48 hours
Description: as §3, §4

[7] = target: SARS-CoV-2 spike protein binding to ACE2 (Homo sapiens, UniProt Q9BYF1); assay: GST pull-down assay of spike protein-ACE2 interaction; conditions: premixed with ACE2 for 30 minutes; ACE2 detected by western blot
SARS-CoV-2 spike protein binding to ACE2, sequence (Q9BYF1 18-740): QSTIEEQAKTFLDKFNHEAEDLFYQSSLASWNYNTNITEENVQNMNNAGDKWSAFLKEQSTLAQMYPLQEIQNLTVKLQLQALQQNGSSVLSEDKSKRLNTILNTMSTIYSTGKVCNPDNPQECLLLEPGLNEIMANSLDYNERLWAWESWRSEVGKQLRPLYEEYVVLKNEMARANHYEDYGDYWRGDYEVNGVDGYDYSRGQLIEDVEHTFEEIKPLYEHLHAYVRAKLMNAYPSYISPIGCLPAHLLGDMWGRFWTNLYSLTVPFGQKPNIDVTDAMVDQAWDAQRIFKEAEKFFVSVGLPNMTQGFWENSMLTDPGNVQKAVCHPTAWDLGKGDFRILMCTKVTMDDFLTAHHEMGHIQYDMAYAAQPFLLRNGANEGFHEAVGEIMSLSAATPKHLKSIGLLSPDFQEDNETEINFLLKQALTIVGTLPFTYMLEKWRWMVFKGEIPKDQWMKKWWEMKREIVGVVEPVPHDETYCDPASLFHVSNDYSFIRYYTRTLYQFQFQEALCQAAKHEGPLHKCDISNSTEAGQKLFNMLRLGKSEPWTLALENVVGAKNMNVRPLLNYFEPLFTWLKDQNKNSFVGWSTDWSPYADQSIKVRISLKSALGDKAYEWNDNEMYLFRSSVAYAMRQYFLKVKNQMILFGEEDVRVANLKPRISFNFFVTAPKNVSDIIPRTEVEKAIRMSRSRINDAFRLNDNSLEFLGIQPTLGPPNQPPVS

[8] = target: T4, ACE2 in Caco-2 cells (Homo sapiens, UniProt Q9BYF1); assay: ACE2 enzymatic activity in cell homogenates; format: biochemical; conditions: Caco-2 cell homogenates, captopril 10 µM
T4 construct: endogenous in cells; host or cells: Caco-2 cells
T4 sequence (Q9BYF1 18-805): as the sequence (Q9BYF1 18-805) above
Description: as §1, with “in” for “in an”
as §2

[9] = test system: SARS-CoV-2 pseudovirus; format: cell-based, human H1299 cells
[10] = target: T5, ACE2 protein levels on cell surface (Homo sapiens, UniProt Q9BYF1); assay: ACE2 surface expression by flow cytometry; format: cell-based; conditions: H1299 cells, 48 hours
T5 construct: endogenous in cells; host or cells: H1299 human lung cancer cells
T5 sequence (Q9BYF1 18-805): as above
Description: H1299 cells were treated with ACE2P1D1 or ACE2P2D1 for 48 hours. ACE2 surface expression was determined by flow cytometry analysis.
Next, Applicant determined whether or not the peptoids in this Example can decrease ACE2 levels on a cell surface.

[11] = target: T3, ACE2 protein; assay: ACE2 expression by western blot; format: cell-based; set-up: endogenous in cells; host or cells: MCF-7 and Caco-2 cells; conditions: MCF-7 and Caco-2 cells, various doses, 48 hours
Description: MCF-7 and Caco-2 cells were treated with various concentrations of ACE2P1D1 or ACE2P2D1 for 48 hours. ACE2 expression was determined by western blot analysis.
As ACE2 is important in blood pressure regulation, Applicant assessed whether the peptoids can decrease ACE2 expression in human cells.

[12] = test system: ACE2 expressing MCF-7 cells; assay: on-bead cell binding of resynthesized peptoids (OBTC two-color); format: cell-based, human; conditions: peptoid on tentagel bead; ACE2+ red stained, ACE2- green stained MCF-7 cells
Description: FIG. 6 provides experimental results illustrating that on-bead peptoids ACE2P1 and ACE2P2 bind to human ACE2 positive cells. The compounds ACE2P1 and ACE2P2 were resynthesized on the tentagel bead and incubated with ACE2 expressing MCF-7 cells (red stained) and ACE2 negative MCF-7 cells (green stained) individually as well as 1:1 mixture of red and green cells.
Applicant resynthesized the identified ACE2P1 and ACE2P2 peptoids on-bead and introduced human ACE2^+ (red stained) and ACE2^- (green stained) MCF-7 cells separately to these two peptoid carrying beads.

[13] = target: T3, ACE2 protein; assay: in vitro pulldown assay with peptoid conjugated beads; format: binding; conditions: 4° C. overnight, western blotting
Description: To confirm a direct interaction between the peptoids and ACE2, Applicant performed in vitro pulldown assays. Recombinant human ACE2 protein was incubated with ACE2P1 or ACE2P2 conjugated beads at 4° C. overnight. The beads were then washed with PBS buffer for 3 times, and the binding proteins were eluted with 1% SDS. The yielded lysates were then applied onto 10% SDS-PAGE gel and subjected to western blotting (FIG. 8A).

Structure (SMILES) | enzymatic activity of ACE2 [1] | enzymatic activity of ACE2 [2] | ACE2 enzyme activity [3] | change in protein melting temperature [4] | cell viability [5] | cell viability [6] | binding of spike protein to ACE2 [7] | enzymatic activity of ACE2 [8] | SARS-CoV-2 pseudovirus infection [9] | ACE2 protein levels on cell surface [10] | expression levels of ACE2 protein [11] | binding of peptoid beads to ACE2+ versus ACE2- MCF-7 cells [12] | pull down of ACE2 protein [13]
C=CCN(CC(=O)N(CC(=O)NC(CCCCN)C(=O)NC(CCSC)C(=O)NCCCCC(NC(=O)C(CCSC)NC(=O)C(CCCCN)NC(=O)CN(C(=O)CN(CC=C)C(=O)CN(Cc1ccc(OC)cc1)C(=O)CN(C(=O)CN(CCOC)C(=O)CNCC(C)C)C(C)c1ccccc1)C(C)c1ccccc1)C(N)=O)C(C)c1ccccc1)C(=O)CN(Cc1ccc(OC)cc1)C(=O)CN(C(=O)CN(CCOC)C(=O)CNCC(C)C)C(C)c1ccccc1 (stereo not shown) [ACE2P1D1] (I: H-[Nleu][Nme][X1][N(4-MeOBn)Gly][NAllylGly][X1]KMK-NH2 / II: H-[Nleu][Nme][X1][N(4-MeOBn)Gly][NAllylGly][X1]KM; amide I:9-II:C; configuration not given here) | did not affect the enzymatic activity of ACE2 | did not affect the enzymatic activity of ACE2 | no effects on ACE2 activity | increase in protein melting temperature | no effects on the viability | no effects on the viability | prevented the binding of spike protein to ACE2 | did not affect the enzymatic activity of ACE2 | effective in inhibiting SARS-CoV-2 pseudovirus infection | did not decrease the ACE2 protein levels on cell surface | did not decrease the expression levels of ACE2 protein |  | 
C=CCN(CC(=O)N(CC(=O)NC(CCCCN)C(=O)NC(CCSC)C(N)=O)C(C)c1ccccc1)C(=O)CN(Cc1ccc(OC)cc1)C(=O)CN(C(=O)CN(CCOC)C(=O)CNCC(C)C)C(C)c1ccccc1 (stereo not shown) [ACE2P1] (H-[Nleu][Nme][X1][N(4-MeOBn)Gly][NAllylGly][X1]KM-NH2; configuration not given here) |  |  |  |  |  |  | increased the binding of spike protein to ACE2 |  |  |  |  | bound only to red stained ACE2^+ cells | able to pull down the ACE2 protein
COCCN(CC(=O)NC(CCCCN)C(=O)NC(CCSC)C(=O)NCCCCC(NC(=O)C(CCSC)NC(=O)C(CCCCN)NC(=O)CN(CCOC)C(=O)CN(CC(C)C)C(=O)CN(CC(C)C)C(=O)CN(CCCOC(C)C)C(=O)CN(Cc1ccc(OC)cc1)C(=O)CNCc1ccc(OC)cc1)C(N)=O)C(=O)CN(CC(C)C)C(=O)CN(CC(C)C)C(=O)CN(CCCOC(C)C)C(=O)CN(Cc1ccc(OC)cc1)C(=O)CNCc1ccc(OC)cc1 (stereo not shown) [ACE2P2D1] (I: H-[N(4-MeOBn)Gly][N(4-MeOBn)Gly][N((CH2)3OiPr)Gly][Nleu][Nleu][Nme]KMK-NH2 / II: H-[N(4-MeOBn)Gly][N(4-MeOBn)Gly][N((CH2)3OiPr)Gly][Nleu][Nleu][Nme]KM; amide I:9-II:C; configuration not given here) | did not affect the enzymatic activity of ACE2 | did not affect the enzymatic activity of ACE2 | no effects on ACE2 activity | increase in protein melting temperature | no effects on the viability | no effects on the viability | prevented the binding of spike protein to ACE2 | did not affect the enzymatic activity of ACE2 | effective in inhibiting SARS-CoV-2 pseudovirus infection | did not decrease the ACE2 protein levels on cell surface | did not decrease the expression levels of ACE2 protein |  | 
COCCN(CC(=O)NC(CCCCN)C(=O)NC(CCSC)C(N)=O)C(=O)CN(CC(C)C)C(=O)CN(CC(C)C)C(=O)CN(CCCOC(C)C)C(=O)CN(Cc1ccc(OC)cc1)C(=O)CNCc1ccc(OC)cc1 (stereo not shown) [ACE2P2] (H-[N(4-MeOBn)Gly][N(4-MeOBn)Gly][N((CH2)3OiPr)Gly][Nleu][Nleu][Nme]KM-NH2; configuration not given here) |  |  |  |  |  |  | increased the binding of spike protein to ACE2 |  |  |  |  | bound only to red stained ACE2^+ cells | able to pull down the ACE2 protein
